According to ChEMBL document CHEMBL1201862, “PubChem BioAssay data set” (2004):
Active and inactive are the calls of the source.

Legend:
[1] = target: T1, Beta-2 adrenergic receptor (Homo sapiens, UniProt P07550); experiment: Dose response for HTS for Beta-2AR agonists via FAP method from Powderset3.; format: functional
[2] = target: T1, Beta-2 adrenergic receptor; experiment: beta2AR agonists driving receptor internalization, dose response, cell-based, FAP fluorogen, flow cytometry, cherry pick 1 (AID 588763); format: functional
[3] = target: Voltage-gated inwardly rectifying potassium channel KCNH2 (Homo sapiens, UniProt Q12809); conditions: Potency;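 further: confirmatory quantitative high-throughput screen measuring inhibition of hERG channel activity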
Chain of Voltage-gated inwardly rectifying potassium channel KCNH2 (Q12809 whole entry): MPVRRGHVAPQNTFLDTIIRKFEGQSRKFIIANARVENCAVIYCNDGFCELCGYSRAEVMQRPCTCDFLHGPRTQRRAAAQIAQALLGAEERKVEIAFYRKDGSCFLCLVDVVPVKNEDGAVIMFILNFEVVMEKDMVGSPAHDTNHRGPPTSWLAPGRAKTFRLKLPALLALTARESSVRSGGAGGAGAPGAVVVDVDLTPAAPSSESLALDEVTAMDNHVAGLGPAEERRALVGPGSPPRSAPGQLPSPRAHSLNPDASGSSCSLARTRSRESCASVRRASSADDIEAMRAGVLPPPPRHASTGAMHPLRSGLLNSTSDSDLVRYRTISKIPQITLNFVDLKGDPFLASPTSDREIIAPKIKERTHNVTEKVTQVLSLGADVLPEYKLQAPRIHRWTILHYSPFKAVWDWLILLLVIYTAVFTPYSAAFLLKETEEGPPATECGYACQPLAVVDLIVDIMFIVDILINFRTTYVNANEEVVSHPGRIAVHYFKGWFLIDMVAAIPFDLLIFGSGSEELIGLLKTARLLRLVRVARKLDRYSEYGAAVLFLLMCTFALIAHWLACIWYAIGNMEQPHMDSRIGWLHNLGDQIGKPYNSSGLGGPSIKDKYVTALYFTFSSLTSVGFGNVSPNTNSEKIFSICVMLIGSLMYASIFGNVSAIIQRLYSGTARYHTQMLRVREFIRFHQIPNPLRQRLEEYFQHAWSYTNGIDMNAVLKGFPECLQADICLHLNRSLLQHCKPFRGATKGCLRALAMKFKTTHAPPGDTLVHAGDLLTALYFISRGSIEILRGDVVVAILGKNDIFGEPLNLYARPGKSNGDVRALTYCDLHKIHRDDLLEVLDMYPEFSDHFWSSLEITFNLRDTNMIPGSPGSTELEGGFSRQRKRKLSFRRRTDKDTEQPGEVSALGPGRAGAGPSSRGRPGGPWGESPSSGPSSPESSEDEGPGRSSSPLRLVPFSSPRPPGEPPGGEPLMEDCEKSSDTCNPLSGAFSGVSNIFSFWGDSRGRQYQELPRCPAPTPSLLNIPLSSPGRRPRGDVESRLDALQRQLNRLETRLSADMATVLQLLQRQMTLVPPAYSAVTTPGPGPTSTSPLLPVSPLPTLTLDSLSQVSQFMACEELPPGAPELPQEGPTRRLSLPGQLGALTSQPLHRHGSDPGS

[4] = target: T2, Short transient receptor potential channel 4 (Mus musculus, UniProt Q9QUQ5); experiment: TRPC4 inhibitor concentration-response, dose response, cell-based, HEK293 TRPC4/mu-opioid, DAMGO stimulus, Fluo-4 (AID 492994); format: functional
T2 sequence (Q9QUQ5 whole entry): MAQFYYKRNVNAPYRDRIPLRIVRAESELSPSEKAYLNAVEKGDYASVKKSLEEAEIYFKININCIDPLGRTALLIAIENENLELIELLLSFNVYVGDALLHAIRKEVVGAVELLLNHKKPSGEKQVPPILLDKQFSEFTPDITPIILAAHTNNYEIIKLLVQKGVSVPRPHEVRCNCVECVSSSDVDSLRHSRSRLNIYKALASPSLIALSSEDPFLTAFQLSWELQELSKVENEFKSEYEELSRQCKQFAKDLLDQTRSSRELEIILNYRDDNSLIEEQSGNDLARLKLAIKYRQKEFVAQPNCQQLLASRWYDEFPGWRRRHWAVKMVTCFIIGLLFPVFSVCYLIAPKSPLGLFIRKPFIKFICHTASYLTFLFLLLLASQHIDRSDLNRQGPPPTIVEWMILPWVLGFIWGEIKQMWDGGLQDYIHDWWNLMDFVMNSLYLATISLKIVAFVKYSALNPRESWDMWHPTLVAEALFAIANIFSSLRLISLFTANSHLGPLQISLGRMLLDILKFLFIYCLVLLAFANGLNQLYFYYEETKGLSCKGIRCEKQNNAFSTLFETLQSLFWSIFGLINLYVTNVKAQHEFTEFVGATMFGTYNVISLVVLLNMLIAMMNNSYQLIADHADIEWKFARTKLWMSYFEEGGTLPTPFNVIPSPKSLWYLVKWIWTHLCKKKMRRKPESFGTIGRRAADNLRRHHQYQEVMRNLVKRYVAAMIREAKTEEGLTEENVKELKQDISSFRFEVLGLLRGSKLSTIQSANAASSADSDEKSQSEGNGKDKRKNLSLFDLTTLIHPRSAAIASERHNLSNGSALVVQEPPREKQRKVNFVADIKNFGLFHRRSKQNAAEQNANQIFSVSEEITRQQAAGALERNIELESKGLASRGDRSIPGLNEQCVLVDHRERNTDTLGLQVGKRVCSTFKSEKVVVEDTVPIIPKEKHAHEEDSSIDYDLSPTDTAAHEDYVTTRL

[5] = target: T2, Short transient receptor potential channel 4; experiment: SAR Analysis for the identification of selective inhibits of the transient receptor potential cation channel C4 (TRPC4): Automated Electrophysiology_2. [Related pubchem assays (depositor defined):AID2256]; format: functional
[6] = target: Short transient receptor potential channel 6 (Mus musculus, UniProt Q61143); experiment: TRPC6 inhibition potency of TRPC4 inhibitor analogs, dose response, selectivity assay for selective TRPC4 inhibitor project, HEK293 cells, membrane potential dye, IC50 (AID 492987); format: functional, cell-based
Chain of Short transient receptor potential channel 6 (Q61143 whole entry): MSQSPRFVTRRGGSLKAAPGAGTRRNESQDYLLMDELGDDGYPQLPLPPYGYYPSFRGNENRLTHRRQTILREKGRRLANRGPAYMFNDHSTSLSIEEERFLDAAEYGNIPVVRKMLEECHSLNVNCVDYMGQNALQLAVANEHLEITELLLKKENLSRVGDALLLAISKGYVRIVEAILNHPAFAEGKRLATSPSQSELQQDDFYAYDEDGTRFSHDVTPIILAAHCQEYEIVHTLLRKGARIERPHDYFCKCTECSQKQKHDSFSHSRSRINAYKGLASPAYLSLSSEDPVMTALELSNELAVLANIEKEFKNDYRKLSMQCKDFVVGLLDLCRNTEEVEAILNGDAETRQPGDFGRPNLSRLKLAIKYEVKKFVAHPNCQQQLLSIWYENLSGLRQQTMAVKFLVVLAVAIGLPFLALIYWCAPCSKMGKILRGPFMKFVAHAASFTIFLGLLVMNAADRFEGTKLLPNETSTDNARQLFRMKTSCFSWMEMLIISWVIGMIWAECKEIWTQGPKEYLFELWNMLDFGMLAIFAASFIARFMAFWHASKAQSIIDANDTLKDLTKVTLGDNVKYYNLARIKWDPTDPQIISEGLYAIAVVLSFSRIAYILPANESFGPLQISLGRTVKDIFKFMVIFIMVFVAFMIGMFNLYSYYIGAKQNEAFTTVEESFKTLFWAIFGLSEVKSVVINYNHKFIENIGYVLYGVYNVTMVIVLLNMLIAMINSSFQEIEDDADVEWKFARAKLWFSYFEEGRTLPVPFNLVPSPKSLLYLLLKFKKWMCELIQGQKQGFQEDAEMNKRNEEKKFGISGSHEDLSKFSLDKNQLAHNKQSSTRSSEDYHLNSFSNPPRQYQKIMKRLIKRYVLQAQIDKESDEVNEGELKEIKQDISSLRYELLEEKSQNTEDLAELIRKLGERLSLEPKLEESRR

[7] = Luminescence Cell-Based Dose Retest to Confirm Inhibitors of Cancer Stem Cells. [Related pubchem assays (depositor defined):AID2717, AID2721]; format: functional; conditions: Homo sapiens
[8] = cytotoxicity in HMLE control line with eGFP shRNA, dose response, counter-screen for HMLE_sh_ECad selective toxicity project, cell-based, HMLE_sh_eGFP, luminescence (AID 463074); format: functional, Homo sapiens;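 further: HMLE human mammary epithelial cells expressing control shRNA against eGFP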
[9] = target: T3, Dual specificity protein phosphatase 3 (Homo sapiens, UniProt P51452); experiment: MOA VHR1 Fluorescent secondary assay for identification of redox-state modulating compounds. [Related pubchem assays (depositor defined):AID1654, AID1661, AID1878, AID1957]
T3 sequence (P51452 whole entry): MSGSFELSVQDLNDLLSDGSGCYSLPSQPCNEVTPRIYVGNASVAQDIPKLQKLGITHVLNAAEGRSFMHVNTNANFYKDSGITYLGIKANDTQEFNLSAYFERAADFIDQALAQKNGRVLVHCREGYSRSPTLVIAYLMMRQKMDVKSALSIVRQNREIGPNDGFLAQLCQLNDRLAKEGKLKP

[10] = target: Dual specificity protein phosphatase 6 (Rattus norvegicus, UniProt Q64346); format: functional;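 further: confirmatory in vitro dose-response testing of MKP-3 inhibition; recombinant His-tagged MKP-3 made in E. coli BL21 with OMFP substrate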
Chain of Dual specificity protein phosphatase 6 (Q64346 whole entry): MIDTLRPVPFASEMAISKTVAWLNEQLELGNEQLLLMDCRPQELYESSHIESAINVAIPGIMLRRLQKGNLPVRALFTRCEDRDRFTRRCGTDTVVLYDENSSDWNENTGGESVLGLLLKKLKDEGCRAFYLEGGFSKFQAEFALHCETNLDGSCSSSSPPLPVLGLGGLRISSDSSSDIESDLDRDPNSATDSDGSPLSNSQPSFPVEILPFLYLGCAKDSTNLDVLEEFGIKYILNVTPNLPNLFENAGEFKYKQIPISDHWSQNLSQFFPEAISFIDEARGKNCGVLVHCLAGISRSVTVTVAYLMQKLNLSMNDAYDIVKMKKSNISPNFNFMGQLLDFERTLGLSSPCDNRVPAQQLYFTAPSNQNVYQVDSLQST

[11] = target: T4, Tyrosine-protein phosphatase non-receptor type 7 (Homo sapiens, UniProt P35236); experiment: redox-dependent HePTP inhibition, mechanism study, biochemical, fluorescence (AID 2068); format: functional
T4 sequence (P35236 whole entry): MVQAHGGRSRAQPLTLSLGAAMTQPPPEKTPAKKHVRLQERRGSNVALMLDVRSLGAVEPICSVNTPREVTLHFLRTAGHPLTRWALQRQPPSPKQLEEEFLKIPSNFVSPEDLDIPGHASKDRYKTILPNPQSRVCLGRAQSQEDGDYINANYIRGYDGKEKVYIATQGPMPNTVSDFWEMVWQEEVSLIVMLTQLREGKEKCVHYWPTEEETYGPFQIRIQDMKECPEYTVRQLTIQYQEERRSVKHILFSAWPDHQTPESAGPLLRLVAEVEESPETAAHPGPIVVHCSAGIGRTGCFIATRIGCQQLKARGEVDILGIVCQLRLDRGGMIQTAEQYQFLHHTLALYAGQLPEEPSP

[12] = target: T5, Tyrosine-protein phosphatase non-receptor type 22 (Homo sapiens, UniProt Q9Y2R2); experiment: SAR LYP1 Fluorescent Assay using OMFP substrate for In Vitro dose response studies - Set 3. [Related pubchem assays (depositor defined):AID1779, AID1784, AID2140, AID2686]; format: functional
T5 sequence (Q9Y2R2 whole entry): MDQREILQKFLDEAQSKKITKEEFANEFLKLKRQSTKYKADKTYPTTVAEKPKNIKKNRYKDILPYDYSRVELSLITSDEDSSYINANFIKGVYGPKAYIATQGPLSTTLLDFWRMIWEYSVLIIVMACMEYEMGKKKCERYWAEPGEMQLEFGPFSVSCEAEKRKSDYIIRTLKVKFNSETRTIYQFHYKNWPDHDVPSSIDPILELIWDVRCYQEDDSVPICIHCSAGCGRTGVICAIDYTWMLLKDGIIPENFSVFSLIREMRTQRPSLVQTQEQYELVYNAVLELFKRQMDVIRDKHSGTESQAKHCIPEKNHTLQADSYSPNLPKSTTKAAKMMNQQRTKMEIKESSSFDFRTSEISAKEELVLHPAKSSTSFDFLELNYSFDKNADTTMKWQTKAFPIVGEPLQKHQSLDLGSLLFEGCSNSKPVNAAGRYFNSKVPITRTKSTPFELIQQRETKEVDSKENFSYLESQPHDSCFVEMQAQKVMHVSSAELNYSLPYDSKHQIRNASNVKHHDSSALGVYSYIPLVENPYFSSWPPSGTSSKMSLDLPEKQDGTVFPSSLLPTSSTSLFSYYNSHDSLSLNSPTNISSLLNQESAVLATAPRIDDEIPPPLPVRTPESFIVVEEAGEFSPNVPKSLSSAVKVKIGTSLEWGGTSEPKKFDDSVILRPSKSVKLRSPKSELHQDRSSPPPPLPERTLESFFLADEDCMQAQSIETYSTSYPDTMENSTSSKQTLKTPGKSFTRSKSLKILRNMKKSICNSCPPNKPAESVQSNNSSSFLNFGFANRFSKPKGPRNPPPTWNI

[13] = target: Tyrosine-protein phosphatase non-receptor type 12 (Homo sapiens, UniProt Q05209); experiment: SAR Selectivity Analysis of small molecule inhibitors of PEST using pCAP in a fluorescence assay. [Related pubchem assays (depositor defined):AID1779, AID1784, AID2135]; format: functional
Chain of Tyrosine-protein phosphatase non-receptor type 12 (Q05209 whole entry): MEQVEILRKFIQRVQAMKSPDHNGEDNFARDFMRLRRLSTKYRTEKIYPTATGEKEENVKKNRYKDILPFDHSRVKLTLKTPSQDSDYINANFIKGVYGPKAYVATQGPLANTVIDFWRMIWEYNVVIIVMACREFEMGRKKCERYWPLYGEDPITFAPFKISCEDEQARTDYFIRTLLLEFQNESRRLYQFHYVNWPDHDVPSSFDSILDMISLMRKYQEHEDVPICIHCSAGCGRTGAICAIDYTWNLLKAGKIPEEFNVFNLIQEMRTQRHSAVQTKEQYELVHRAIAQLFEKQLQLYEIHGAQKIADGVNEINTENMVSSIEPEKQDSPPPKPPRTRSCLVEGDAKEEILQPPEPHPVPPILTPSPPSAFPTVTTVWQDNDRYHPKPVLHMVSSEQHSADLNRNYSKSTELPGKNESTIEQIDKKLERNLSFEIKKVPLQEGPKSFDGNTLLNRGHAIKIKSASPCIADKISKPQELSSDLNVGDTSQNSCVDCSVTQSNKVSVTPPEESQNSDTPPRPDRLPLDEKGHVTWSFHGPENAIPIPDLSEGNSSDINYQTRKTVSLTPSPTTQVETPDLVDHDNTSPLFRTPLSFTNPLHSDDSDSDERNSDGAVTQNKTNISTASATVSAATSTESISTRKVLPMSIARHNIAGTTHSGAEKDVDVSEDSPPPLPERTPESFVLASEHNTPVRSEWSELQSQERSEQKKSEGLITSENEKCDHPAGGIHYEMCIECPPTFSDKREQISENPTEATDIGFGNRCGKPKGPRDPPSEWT

[14] = target: T5, Tyrosine-protein phosphatase non-receptor type 22; experiment: LYP (PTPN22) phosphatase inhibitor potency, SAR follow-up, biochemical, pCAP fluorogenic substrate, fluorescence, set 3 (AID 449727); format: functional
[15] = target: T4, Tyrosine-protein phosphatase non-receptor type 7; experiment: HePTP (PTPN7) phosphatase inhibitor potency, SAR follow-up, biochemical, set 2 (AID 449736); format: functional
[16] = target: T3, Dual specificity protein phosphatase 3; experiment: SAR VHR1 Fluorescent Assay for In Vitro dose response studies Set 2. [Related pubchem assays (depositor defined):AID1654, AID1661, AID1878]; format: functional
[17] = target: T3, Dual specificity protein phosphatase 3; experiment: SAR VHR1 Fluorescent Assay for In Vitro dose response studies. [Related pubchem assays (depositor defined):AID1654, AID1661, AID1878, AID1992, AID2004, AID2070, AID2085]; format: functional
Hexokinase-1 = Hexokinase-1 (Homo sapiens, UniProt P19367); experiment: SAR analysis of small molecule inhibitors of hexokinase domain containing I (HKDC1) in the hexokinase 1 selectivity assay. [Related pubchem assays (depositor defined):AID493160, AID493190]; format: functional
Chain of Hexokinase-1 (P19367 whole entry, the tested form may be a part): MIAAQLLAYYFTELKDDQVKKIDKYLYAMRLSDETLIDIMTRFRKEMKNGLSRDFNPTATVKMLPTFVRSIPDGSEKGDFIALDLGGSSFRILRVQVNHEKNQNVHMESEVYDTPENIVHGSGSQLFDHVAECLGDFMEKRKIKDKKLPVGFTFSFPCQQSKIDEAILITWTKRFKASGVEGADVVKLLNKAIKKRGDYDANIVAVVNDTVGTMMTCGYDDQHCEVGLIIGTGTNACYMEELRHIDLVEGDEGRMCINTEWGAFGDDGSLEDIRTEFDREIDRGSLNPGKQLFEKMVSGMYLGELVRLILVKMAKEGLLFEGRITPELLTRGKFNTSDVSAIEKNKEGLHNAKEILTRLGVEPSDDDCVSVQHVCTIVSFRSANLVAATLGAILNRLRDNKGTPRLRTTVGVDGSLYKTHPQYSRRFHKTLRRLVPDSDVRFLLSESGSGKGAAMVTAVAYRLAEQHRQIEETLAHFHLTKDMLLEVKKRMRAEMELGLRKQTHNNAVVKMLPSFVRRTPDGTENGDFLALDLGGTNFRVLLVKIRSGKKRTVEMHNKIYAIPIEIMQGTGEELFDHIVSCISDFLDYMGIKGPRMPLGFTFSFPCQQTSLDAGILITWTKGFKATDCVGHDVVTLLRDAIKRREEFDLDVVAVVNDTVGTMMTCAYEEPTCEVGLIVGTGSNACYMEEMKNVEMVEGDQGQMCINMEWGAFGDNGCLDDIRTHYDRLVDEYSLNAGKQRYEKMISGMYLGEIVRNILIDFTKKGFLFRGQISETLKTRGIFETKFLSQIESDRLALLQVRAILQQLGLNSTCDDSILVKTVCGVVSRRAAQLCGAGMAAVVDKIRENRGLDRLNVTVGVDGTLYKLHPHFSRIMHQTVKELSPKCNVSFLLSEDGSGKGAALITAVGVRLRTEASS

Hexokinase HKDC1 = target: T6, Hexokinase HKDC1 (Homo sapiens, UniProt Q2TB90); experiment: SAR analysis of small molecule inhibitors of hexokinase domain containing I (HKDC1). [Related pubchem assays (depositor defined):AID493160, AID493190]; format: functional
T6 sequence (Q2TB90 whole entry): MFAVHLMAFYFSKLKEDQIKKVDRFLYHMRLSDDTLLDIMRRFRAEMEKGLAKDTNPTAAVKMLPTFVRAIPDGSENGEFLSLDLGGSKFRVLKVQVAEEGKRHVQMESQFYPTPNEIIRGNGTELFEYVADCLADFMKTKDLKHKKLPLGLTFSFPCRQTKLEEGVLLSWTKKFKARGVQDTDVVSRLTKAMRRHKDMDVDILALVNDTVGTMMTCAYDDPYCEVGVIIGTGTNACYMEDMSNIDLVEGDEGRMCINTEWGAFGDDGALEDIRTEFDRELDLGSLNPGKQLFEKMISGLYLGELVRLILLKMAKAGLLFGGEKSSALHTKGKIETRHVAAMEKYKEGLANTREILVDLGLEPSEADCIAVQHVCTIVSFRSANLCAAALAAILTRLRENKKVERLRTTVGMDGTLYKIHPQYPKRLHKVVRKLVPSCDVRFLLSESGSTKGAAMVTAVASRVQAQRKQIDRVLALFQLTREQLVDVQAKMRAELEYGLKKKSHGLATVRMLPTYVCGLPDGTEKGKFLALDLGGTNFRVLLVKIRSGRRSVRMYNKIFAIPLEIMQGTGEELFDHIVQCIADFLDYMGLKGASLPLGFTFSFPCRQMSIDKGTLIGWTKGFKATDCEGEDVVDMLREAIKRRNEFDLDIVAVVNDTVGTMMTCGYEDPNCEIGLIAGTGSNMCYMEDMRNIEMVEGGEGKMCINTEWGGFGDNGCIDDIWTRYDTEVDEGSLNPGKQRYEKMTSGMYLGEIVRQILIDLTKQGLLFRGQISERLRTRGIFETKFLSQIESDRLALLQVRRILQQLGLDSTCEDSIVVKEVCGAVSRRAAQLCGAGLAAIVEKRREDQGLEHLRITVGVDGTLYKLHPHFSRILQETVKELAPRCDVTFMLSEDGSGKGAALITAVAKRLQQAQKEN

Beta-galactosidase = Beta-galactosidase (Escherichia coli, UniProt Q8VNN2); experiment: PubChem AID 485352; format: functional
[18] = cytotoxicity in HEK-293T NF-kB-Luc cells, dose response, cytotoxicity control for B/T-cell NF-kB inhibitor project, cell-based, uHTS hits (AID 489019); format: functional;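 further: IC50 reflects cytotoxicity as loss of cell viability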
[19] = target: T7, Type-1 angiotensin II receptor (Homo sapiens, UniProt P30556); experiment: AT1 receptor antagonists, dose response, selectivity assay for APJ receptor antagonist project, cell-based, uHTS hits (AID 463214); format: functional;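 further: antagonist potency against angiotensin II stimulated AT1 response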
T7 sequence (P30556 whole entry): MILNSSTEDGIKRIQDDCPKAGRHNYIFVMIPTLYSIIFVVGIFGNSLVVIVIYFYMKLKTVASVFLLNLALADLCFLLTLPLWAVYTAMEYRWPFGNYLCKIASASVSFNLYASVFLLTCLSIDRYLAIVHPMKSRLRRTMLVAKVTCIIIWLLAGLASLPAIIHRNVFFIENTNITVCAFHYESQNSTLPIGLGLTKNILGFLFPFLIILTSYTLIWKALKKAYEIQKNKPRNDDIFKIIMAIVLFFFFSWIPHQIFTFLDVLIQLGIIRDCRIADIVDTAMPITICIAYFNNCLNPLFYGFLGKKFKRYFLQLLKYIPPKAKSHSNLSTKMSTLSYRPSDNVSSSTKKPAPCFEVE

Jurkat = experiment: antigen receptor-induced NF-kB inhibitors, dose response, Jurkat, luciferase reporter, luminescence, B- and T-cell (AID 489004); format: functional, cell-based; conditions: Homo sapiens;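 further: NF-kB luciferase reporter Jurkat cells stimulated with PMA plus ionomycin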
[20] = HepG2 cell cytotoxicity, dose response, cytotoxicity control for Shn3 inhibitor project, CellTiter-Glo, cherry-picked (AID 624134); format: functional, cell-based
[21] = Shn3 3'UTR reporter inhibitors, dose response, cell-based, Clone20 osteoblasts, firefly luciferase, cherry-picked (AID 624132); format: functional;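 further: firefly luciferase luminescence from reporter carrying the Shn3 3'UTR in osteoblasts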
[22] = control 3'UTR Renilla luciferase suppression, dose response, counter-screen for Shn3 inhibitor project, cell-based, Clone20-Shn3RL, cherry-picked (AID 624133); format: functional

T1 sequence (P07550 whole entry): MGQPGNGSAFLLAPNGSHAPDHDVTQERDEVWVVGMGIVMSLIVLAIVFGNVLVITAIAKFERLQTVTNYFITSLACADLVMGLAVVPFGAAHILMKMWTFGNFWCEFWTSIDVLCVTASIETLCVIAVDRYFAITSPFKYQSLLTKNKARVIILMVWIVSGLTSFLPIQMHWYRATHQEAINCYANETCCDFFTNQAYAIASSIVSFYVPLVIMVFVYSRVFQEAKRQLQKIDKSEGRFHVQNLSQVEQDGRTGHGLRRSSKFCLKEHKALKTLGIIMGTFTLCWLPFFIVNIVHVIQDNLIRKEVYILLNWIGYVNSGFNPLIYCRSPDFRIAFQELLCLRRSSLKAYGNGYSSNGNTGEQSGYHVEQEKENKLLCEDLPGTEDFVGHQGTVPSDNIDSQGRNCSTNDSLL

## C=CCn1c(CCNC(=O)c2cccs2)nnc1SCC(=O)c1ccc(Br)cc1
[1]
  EC50: 0.00548 µM (active)
[2]
  EC50: 0.214 µM (active)

## COc1cc([C@@H]2c3cc4c(cc3[C@H](O)C3COC(=O)[C@@H]32)OCO4)cc(OC)c1OC (stereo partly specified)
[3]
  AC50: 0.501 µM (inconclusive)

## Cc1cc(N2CCCC2)nc2c(C)cccc12
[4]
  IC50: 10.7 µM (active)
[5]
  IC50: 9.96 µM (active)
[6]
  IC50: 9.8 µM (active)

## Cc1ccc(Nc2nc(N)nc(CSC(=S)N3CCN(c4ccccc4)CC3)n2)cc1
[7]
  AC50: 13.4 µM (active)
[8]
  AC50: 31.4 µM (active)

## CCOC(=O)C1=C(C)N=c2s/c(=C\c3cc(Cl)c(OCC(=O)O)c(Cl)c3)c(=O)n2C1c1cccc(OC)c1 (stereo unspecified)
[9]
  IC50: 2.76 µM (active)
[10]
  IC50: 49.7 µM (active)
[11]
  IC50: 1.95 µM (active)
[12]
  IC50: 44.6 µM (active)
[13]
  IC50: 7.99 µM (active)
[14]
  IC50: 34.1 µM (active)
[15]
  IC50: 1.22 µM (active)
[16]
  IC50: 31.9 µM (active)
[17]
  IC50: 13.4 µM (active)

## O=c1c2ccccc2nc(/C=C/c2ccccc2Cl)n1Cc1ccccc1
Hexokinase-1
  IC50: > 80 µM (inactive)
Hexokinase HKDC1
  IC50: > 80 µM (inactive)

## O=C1/C(=C/c2ccccc2)C[C@@]2(O)[C@H]3Cc4ccc(O)c5c4[C@@]2(CCN3CC2CC2)C1O5 (stereo partly specified)
Beta-galactosidase
  EC50: > 40 µM (inactive)
[18]
  IC50: > 80 µM (inactive)
[19]
  IC50: 14 µM (active)
Jurkat
  IC50: 4.22 µM (active)
[20]
  AC50: 8.88 µM (active)
[21]
  AC50: 4.64 µM (active)
[22]
  AC50: 7.78 µM (active)
